Values of other authors in article PMC10287555, “Camonsertib in DNA damage response-deficient advanced solid tumors: phase 1 trial results” (Nature Medicine, 2023).

Tested on: advanced solid tumors
Settings: combination with gemcitabine; cited from earlier work

In the case of `CNCc1ccc(-c2cc(-c3nc(-c4ccc(S(=O)(=O)C(C)C)cc4)cnc3N)on2)cc1` [berzosertib], the “Response rate in TMB-H NSCLC versus patients without elevated TMB” value is given as “higher response rates”.
